Reference: patent US10941107B2, “Prodrugs of gamma-hydroxybutyric acid, compositions and uses thereof” (XW LABORATORIES INC., priority 2015, dated 2021)
Counter-ions that a name gives are not always drawn. Like-named read-outs stand apart in the source and are kept apart here.

What was measured:
[1] = Human hepatocytes metabolic stability assay; format: in vitro ADME; conditions: both sexes, cryopreserved hepatocytes; human hepatocytes 1×10^6 viable cells/mL
Procedure: (§1) Rat/Human Hepatocytes Metabolic Stability Assay
(§2) 2) 30 mM stock solutions of test compounds were prepared in DMSO. Thawing medium and supplement incubation medium (serum-free) were placed in a 37° C. water bath for at least 15 minutes prior to use. Stock solutions were diluted to 500 μM by combining 295 μL acetonitrile and 5 μL of 30 mM stock solution. 3) Vials of cryopreserved hepatocytes were removed from storage, ensured that vials remain at cryogenic temperatures. The pressure was removed by loosening and re-tightening the cap. The vials were thawed in a 37° C. water bath with gently shaking. Vials were kept in water bath until all ice crystals had dissolved and were no longer visible. Vials were sprayed with 70% ethanol before being transferred to a biosafety cabinet. And then the contents were poured into the 50 mL thawing medium conical tube. Vials were centrifuged at 100 g for 10 minutes at room temperature. Thawing medium was aspirated and hepatocytes were resuspended with serum-free incubation medium to yield ˜1.5×10^6 cells/mL. 4) Cell viability and density were counted using a Trypan Blue exclusion, and then cells were diluted with serum-free incubation medium to a working cell density of 1×10^6 viable cells/ml. 5) A portion of the hepatocytes at 1×10^6 viable cells/mL was boiled for 10 min prior to adding to the plate as negative control to eliminate the enzymatic activity so that little or no substrate turnover should be observed. The inactivated hepatocytes were used to prepare negative samples, which were used to exclude the misleading factor that resulted from instability of chemical itself 6) Aliquots of 247.5 μL hepatocytes were dispensed into each well of a 96-well non-coated plate. The plate was placed in the incubator on an orbital shaker at 500 rpm for approximately 10 minutes. 7) Aliquots of 2.5 μL of the 500 μM test compounds were added into respective wells of the non-coated 96-well plate to start the reaction. This assay was performed in duplicate. The plate was incubated in the incubator on an orbital shaker at 500 rpm for the designed time points. […]

[2] = Rat hepatocytes metabolic stability assay; format: in vitro ADME; conditions: male, cryopreserved hepatocytes; rat hepatocytes 1×10^6 viable cells/mL
Procedure: as §1, §2

[3] = both, human, pooled liver S9 fractions
[4] = Rat liver S9 fractions metabolic stability assay; conditions: both, pooled liver S9 fractions
[5] = Dog pharmacokinetic study; format: in vivo, male Beagle dogs; conditions: male, Beagle, plasma, IV
Description: For dog pharmacokinetic studies, male Beagle dogs were housed individually. Dogs in oral administration groups were fasted overnight before use but with free access to water supply. Dogs in IV groups have free access to food and water. […]

[6] = Rat pharmacokinetic study; conditions: male, Sprague-Dawley, plasma, 50 mg/kg
[7] = background statement; cited from earlier work
[8] = background statement; cited from earlier work; remark: listed apart in the source

CC(C)[C@H](N)C(=O)OCCCC(=O)O [Compound 58, (S)-4-(2-amino-3-methylbutanoyloxy)butanoic acid]
half-life at 5 μM [1]: 160 min
half-life at 5 μM [2]: 46.7 min

CC(C)C(=O)NCC(=O)OCCCC(=O)O [Compound 64, 4-(2-isobutyramidoacetoxy)butanoic acid]
half-life at 5 μM [3]: 58 min
half-life at 5 μM [4]: 62.7 min

O=C(O)CCCOC(=O)Oc1ccccc1 [Compound 32, 4-(phenoxycarbonyloxy)butanoic acid]
half-life at 5 μM [3]: 40.4 min
half-life at 5 μM [4]: 8.5 min

O=C(O)CCCO [GHB sodium salt]
AUC(0-t) ([5]; GHB sodium salt 20 mg/kg): 35700 ng·h/mL
bioavailability ([5]; GHB sodium salt 20 mg/kg (reference), read-out: Bioavailability F (%)): 100%
AUC(0-t) ([6]; iv): 25900 ng·h/mL
bioavailability ([6]; iv): 100%
AUC(0-t) ([6]; po): 6700 ng·h/mL
Cmax ([6]; po): 7600 ng/mL
Tmax ([6]; po): 17 min
bioavailability ([6]; po): 26%
reduction of the total number of cataplexy episodes [7]: ~70%
plasma half-life (t1/2) [8]: < 60 min

CC(OC(=O)OCCCC(=O)O)OC(=O)c1ccccc1 (stereo not shown) [Compound 89, 4-(1-(benzoyloxy)ethoxycarbonyloxy)butanoic Acid]
half-life at 5 μM [3]: 10.5 min
half-life at 5 μM [4]: 17.5 min

CC(=O)NCC(=O)OCCCC(=O)O [Compound 66, 4-(2-acetamidoacetoxy)butanoic Acid]
half-life at 5 μM [3]: 9.21 min
half-life at 5 μM [4]: 8 min
half-life at 5 μM [1]: 24.9 min
half-life at 5 μM [2]: 16.7 min

CC(=O)N[C@H](C(=O)OCCCC(=O)O)C(C)C [Compound 67, (S)-4-(2-acetamido-3-methylbutanoyloxy)butanoic acid]
half-life at 5 μM [3]: 83.2 min
half-life at 5 μM [4]: 74.2 min
half-life at 5 μM [1]: 220 min
half-life at 5 μM [2]: 131 min

Cl.N[C@@H](Cc1ccccc1)C(=O)OCCCC(=O)O [hydrochloride salt of Compound 57, (S)-4-(2-amino-3-phenylpropanoyloxy)butanoic acid hydrochloride]
half-life at 5 μM [3]: 2.15 min
half-life at 5 μM [4]: 2.48 min
